Literature values as cited in patent US6491657B2, “Ultrasound enhancement of transdermal transport” (Sontra Medical, Inc., priority 1996, dated 2002).

Conditions: with ethanol as chemical enhancer

C[C@]12CC[C@@H]3c4ccc(O)cc4CC[C@H]3[C@@H]1CC[C@@H]2O [estradiol]
flux increase: 140 fold
